Experimental data reported in patent US20120015399A1, “FLUORESCENT SOLVATOCHROMIC PIGMENT” (National University Corporation Hokkaido University, priority 2009, published 2012).

Experiments:
[1] = Fluorescence emission in water in the presence of additives (lecithin, β-cyclodextrin, Triton X-100, CTAB, SDS); format: physicochemical; details: additives in deionized water, excitation 488 nm, FIG. 5
Experimental: After adding 5 milliliters of deionized water, the mixtures were sonicated with ultrasound for 20 seconds. The supernatant solution was irradiated with light at 488 nm, and the light emitted was measured using a fluorescence spectrophotometer (F-4500). […] After adding 5 milliliters of deionized water, the mixtures were sonicated with ultrasound for 20 seconds. The supernatant solution was irradiated with light at 450 nm, and the light emitted was measured using a fluorescence spectrophotometer (F-4500).

[2] = test system: macrophage cells (RAW264); experiment: Staining of macrophage cells, confocal laser fluorescence microscopy; format: cell-based; details: stain solution in calf serum/D-MEM 1:9, fifteen minutes, 37° C., argon laser 488 nm, FIG. 9
Experimental: In the present Example, macrophage cells were stained using the pyridinium derivatives shown in Table 1 and the differences in cell staining were compared in order to investigate the effects of the alkyl chain lengths in R^7 and R^8.
Several micrograms of each pyridinium derivative (Compounds 10 and 21 to 23) were added to 10 milliliters of a liquid medium obtained by mixing calf serum and D-MEM base medium in a 1:9 ratio. The mixtures were left standing in a refrigerator overnight to dissolve the solids. 5 milliliters of the supernatant solutions were removed the next day and were used as cell staining solutions after filtering the solutions through sterilizing membrane filters with a pore diameter of […] p.m.
The macrophage cells (RAW264 of ATCC Co., Ltd.) were floated in HydroCell dishes manufactured by Cell Seed Co., Ltd. using a liquid culture obtained by mixing calf serum and D-MEM base medium in a 1:9 ratio.
The media were removed from the glass bottom dishes on which the RAW264 cells were supported, and 0.2 ml of each stain solution was added. The cells were stained by leaving the dish standing for fifteen minutes in a CO2 incubator at 37° C. The stain solutions were subsequently removed, and the media were exchanged three times using a liquid medium obtained by mixing calf serum and D-MEM base medium in 1:9 ratio. […] The results are shown in terms of fluorescence microscopic images (FIG. 9).

[3] = test system: human fetus kidney-derived HEK293 cells; experiment: Staining of HEK293 cells, location of dye and emitted light wavelength; format: cell-based; details: stain solution in calf serum/D-MEM 1:9, fifteen minutes, 37° C., argon laser 488 nm, FIG. 10
Experimental: In the present Example, human fetus kidney-derived HEK293 cells were stained using Compound 10, and the location of the dye and emitted light wavelength were examined.
Several micrograms of Compound 10 was added to 10 milliliters of a liquid medium obtained by mixing calf serum and D-MEM base medium in a 1:9 ratio. The mixture was left standing in a refrigerator overnight to dissolve the solids. 5 milliliters of the supernatant solution was removed the next day and was used as a cell staining solution after filtering the solution through a sterilizing membrane filter with a pore diameter of […]
The human fetus kidney-derived cells HEK293 (Riken Cell Bank) were cultured in a five milliliter culture flask using a liquid culture obtained by mixing calf serum and D-MEM base medium in a 1:9 ratio. The solution was used to inoculate a glass bottom dish.
The medium was removed from the glass bottom dish on which the HEK293 cells were supported, and 0.2 ml of the stain solution was added. The cells were stained by leaving the dish standing for fifteen minutes in a CO2 incubator at 37° C. The stain solution was subsequently removed, and the medium was exchanged three times using a liquid medium obtained by mixing calf serum and D-MEM base medium in a 1:9 ratio.

[4] = test system: human colon cancer cell T84; experiment: Staining of cultured cells, confocal laser fluorescence microscopy; format: cell-based
Experimental: In the present Example, Compound 7 was introduced into cultured human colon cancer cell T84 and its image was observed using a fluorescence microscope.
Human colon cancer cell T84 culture (cell stock-microbial stock-gene bank (ATCC) number CCL-248, supplied by Summit Pharmaceuticals International Corporation) in a sub-confluent state that had been cultured (37° C., 5% CO2) for two to four days in a glass bottom dish (35 mm, Matsunami Glass Ind., Ltd.) was washed with phosphoric acid buffered physiological saline solution. One hundred microliters of a DMSO solution of 2×10^−5 M of Compound 7 was added dropwise near the cells, and a reaction was allowed to occur for five minutes at room temperature. The cells were washed again using phosphoric acid buffered physiological saline solution and were immediately exposed to an argon laser (488 nm) to reach an excited state in the phosphoric acid buffered physiological saline solution. The response was observed using a confocal laser microscope (LSM510META manufactured by Carl Zeiss).
In the present Comparative Example, the compound shown below described in Reference 3 (Japanese Patent Application Public Disclosure No. 2008-291210) was used in place of Compound 7, and the fluorescence microscope images of the cultured human colon cancer cell T84 were examined in the manner described in Example 5.

[5] = Absorption spectra of thiophene derivatives in solvents of different polarity; format: physicochemical; details: for Molar absorption coefficient: at maximum absorption wavelength
Experimental: (§1) In the present Example, the thiophene derivatives (Compounds 3 to 6) obtained in Synthesis Examples 1 and 2 were dissolved in a variety of solvents with different polarity, and the absorption and the fluorescent spectra were measured.
Now, the solvent polarity ET(30) (kcal/mole) was obtained by dissolving the betaine dye of the following formula that is a light absorbing solvatochromic dye in each solvent and incorporating the maximum absorption wavelength, λ (nm), into the equation ET(30)=28591/λ.
The thiophene derivative solutions were prepared by using a standard solvent for spectral measurement (Wako Pure Chemical Industries, Ltd.) in concentrations of from […] to 1.2×10^−5M, and absorptions were measured with a visible/ultraviolet spectrophotometer (V-560 UV/VIS Spectrophotometer manufactured by JASCO Corporation). The maximum absorption wavelength (nm) is shown in Table 2, and the molar absorption coefficient (mol^−1cm^−1) at the maximum absorption wavelength is shown in Table 3. The numbers in the tables indicate compound numbers.

[6] = Fluorescence spectra of thiophene derivatives in solvents of different polarity; format: physicochemical
Experimental: as §1
Next, fluorescence spectra of the thiophene derivatives were measured. The fluorescence spectra were measured using the same samples used for the absorption spectra and using a fluorescence spectrophotometer (F-4500 manufactured by Hitachi Ltd.)
The numbers in the table indicate compound numbers.

[7] = Fluorescence colour in aqueous synthetic detergent solutions of different pH; format: physicochemical; details: blue light 450 nm
Experimental: In the present Example, Compound 6 was dissolved in aqueous synthetic detergent solutions having different pH values and the fluorescence was measured.
Compound 6 (0.1 g each) obtained in Synthesis Example 2 was placed in three test tubes, and 10 ml each of deionized water and one drop of weakly acidic “Biore” (liquid detergent of Kao Corporation), “COOP K Soft” (liquid detergent of Cope Green K.K.) or “My Pet” (liquid detergent of Kao Corporation) were added. Aqueous solutions of Compound 6 were obtained by dissolving the compound using ultrasonic irradiation. The solutions were irradiated with blue light (450 nm) using a full color LED flash light (MFL 143-FB manufactured by Anteya Technology Corporation). The fluorescent color observed was orange in a weakly acidic environment (pH=5), red in a neutral environment […] and crimson in a weakly alkaline environment (pH=8).

[8] = Comparative Example 1, blue diode laser 405 nm, FIG. 11
[9] = 1,4-Dioxane, solvent polarity ET(30) 36.0
[10] = Acetone, solvent polarity ET(30) 42.2
[11] = DMSO, solvent polarity ET(30) 45.1

Structure (SMILES)	Maximum absorption wavelength [5, 9]	Maximum absorption wavelength [5, 10]	Maximum absorption wavelength [5, 11]	Molar absorption coefficient ([5]; 1,4-Dioxane, ET(30) 36.0)	Molar absorption coefficient ([5]; Acetone, ET(30) 42.2)	Molar absorption coefficient ([5]; DMSO, ET(30) 45.1)	Maximum fluorescence emission wavelength ([6]; 1,4-Dioxane, ET(30) 36.0)	Maximum fluorescence emission wavelength ([6]; Acetone, ET(30) 42.2)	Maximum fluorescence emission wavelength ([6]; DMSO, ET(30) 45.1)	Cell staining pattern [2]	also measured
CCCCCCN(CCCCCC)c1ccc(-c2ccc(-c3cc[n+](C)cc3)s2)cc1.O=S(=O)([O-])C(F)(F)F [Compound 10, {4-[5-(4-dihexylamino)phenyl]thiophene-2-yl}-1-methylpyridinium trifluoromethane sulfonate]										the cell membrane and mitochondria were selectively stained	Fluorescence wavelength response to local environment [1]: respond sensitively to the local environment in terms of fluorescence wavelength; Emitted light color by location in cell [3]: different for the cell membrane (1 in the figure) and mitochondria
CCCCCCN(CCCCCC)c1ccc(-c2ccc(-c3cc[n+](C)cc3)s2)cc1.F[B-](F)(F)F [Compound 7, 4-[5-(4-dihexylamino)phenyl]thiophene-2-yl-1-methylpyridinium tetrafluoroborate]											Cell staining ([4]; 2×10^−5 M in DMSO, five minutes, room temperature, argon laser 488 nm, FIG. 7): cell membranes of colon cancer cells T84 are stained; Laser caused fading ([4]; confocal laser microscope, conditions of the experiment): did not undergo laser caused fading
CN(C)c1ccc(-c2ccc(-c3ccc(S(=O)(=O)OCC(C)(C)C)cc3)s2)cc1 [reference compound]											Cell staining [4, 8]: the cell membrane was selectively labeled with fluorescence; Change of fluorescence wavelength between cell sections [4, 8]: remained almost unchanged
CCCCCCCCN(CCCCCCCC)c1ccc(-c2ccc(-c3cc[n+](C)cc3)s2)cc1.O=S(=O)([O-])C(F)(F)F [Compound 23]										the entire cell was stained with fluorescence but the fluorescence intensity was low and the stain was not even	
CCCCCCN(CCCCCC)c1ccc(-c2ccc(-c3cc[n+](C)cc3)s2)cc1.[I-] [Compound 6, 4-[5-(4-dihexylamino)phenyl]thiophene-2-yl-1-methylpyridinium iodide]	490 nm	501 nm	497 nm	26,000 mol^−1cm^−1	36,000 mol^−1cm^−1	36,000 mol^−1cm^−1	568 nm	639 nm	653 nm		Excitation by commonly encountered argon lasers (488 nm) [5]: could be efficiently excited; Absorption and emission wavelengths, compared ([6]; versus Compounds 3 to 5): significantly longer absorption and emission wavelengths than Compounds 3 to 5; Fluorescent color observed ([7]; neutral environment (pH=6)): red; Fluorescent color observed ([7]; weakly acidic environment (pH=5)): orange; Fluorescent color observed ([7]; weakly alkaline environment (pH=8)): crimson
CCCCN(CCCC)c1ccc(-c2ccc(-c3cc[n+](C)cc3)s2)cc1.O=S(=O)([O-])C(F)(F)F [Compound 22, 4-[5-(4-dibutylamino)phenyl]thiophene-2-O-1-methylpyridinium trifluoromethane sulfonate]										the cell membrane and mitochondria were selectively stained	
CCN(CC)c1ccc(-c2ccc(-c3cc[n+](C)cc3)s2)cc1.O=S(=O)([O-])C(F)(F)F [Compound 21]										Entire cells were stained with fluorescence	

More lines, main results first:

Maximum absorption wavelength [5, 9]	Maximum absorption wavelength [5, 10]	Maximum absorption wavelength [5, 11]	Molar absorption coefficient ([5]; 1,4-Dioxane, ET(30) 36.0)	Molar absorption coefficient ([5]; Acetone, ET(30) 42.2)	Molar absorption coefficient ([5]; DMSO, ET(30) 45.1)	Maximum fluorescence emission wavelength ([6]; 1,4-Dioxane, ET(30) 36.0)	Maximum fluorescence emission wavelength ([6]; Acetone, ET(30) 42.2)	Maximum fluorescence emission wavelength ([6]; DMSO, ET(30) 45.1)	Structure (SMILES)	Cell staining pattern [2]	also measured
387 nm	385 nm	395 nm	33,000 mol^−1cm^−1	33,000 mol^−1cm^−1	31,000 mol^−1cm^−1	459 nm	488 nm	507 nm	CCCCCCN(CCCCCC)c1ccc(-c2ccc(-c3ccccn3)s2)cc1 [Compound 4, N,N-dihexyl-4-[5-(pyridine-2-yl)thiophene-2-yl]aniline]		
395 nm	395 nm	406 nm	33,000 mol^−1cm^−1	33,000 mol^−1cm^−1	31,000 mol^−1cm^−1	472 nm	507 nm	522 nm	CCCCCCN(CCCCCC)c1ccc(-c2ccc(-c3ncccn3)s2)cc1 [Compound 5, N,N-dihexyl-4-[5-(pyrimidine-2-yl)thiophene-2-yl]aniline]		
389 nm	391 nm	401 nm	31,000 mol^−1cm^−1	33,000 mol^−1cm^−1	32,000 mol^−1cm^−1	467 nm	507 nm	522 nm	CCCCCCN(CCCCCC)c1ccc(-c2ccc(-c3ccncc3)s2)cc1 [Compound 3, N,N-dihexyl-4-[5-(pyridine-4-yl)thiophene-2-yl]aniline]		
